Patent US20160361302A1, “SNS-595 AND METHODS OF USING THE SAME” (Sunesis Pharmaceuticals, Inc., priority 2004, published 2016)
Read-outs that look alike come from different tables or passages of the source.

Assay: Pharmacokinetics of SNS-595 in cancer patients
Type: in vivo, human
Details: for AUC(0-inf): read-out: AUCINF_obs
Experimental: SNS-595 was administered to enrolled patients for up to six cycles. A cycle is defined as a three-week period, with SNS-595 administered on the first day of each cycle (day 0), followed by at least 21 days of observation. SNS-595 was administered to cohorts of at least 3 patients and dose escalation occurred by sequential cohort.

[1] = dose 6 mg/m2, cancer patients, plasma
[2] = dose 12 mg/m2, cancer patients, plasma
[3] = dose 24 mg/m2, cancer patients, plasma
[4] = dose 48 mg/m2, cancer patients, plasma
[5] = human, dose 12 mg/m2, cancer patients, plasma

Vs_obs (dose 2 mg/m2, cancer patients, plasma): 1.38 L/kg
AUClast [1]: 2.40808 µg·h/mL
CI_obs [1]: 0.0426 L/h/kg
Cmax [1]: 0.34706 µg/mL
Vs_obs [1]: 1.28 L/kg
CI_obs [2]: 0.0468 L/h/kg
Vs_obs [2]: 1.17 L/kg
AUClast [3]: 11.13202 µg·h/mL
CI_obs [3]: 0.0498 L/h/kg
Cmax [3]: 2.70233 µg/mL
Vs_obs [3]: 1.18 L/kg
Cmax [4]: 2.342 µg/mL
Vs_obs [4]: 1.37 L/kg
AUC(0-inf) (human, dose 6 mg/m2, cancer patients, plasma): 2.8 µg·h/mL
AUC(0-t) [5]: ~6.29 µg·h/mL
AUC(0-inf) [5]: 5.23 µg·h/mL
Structure (SMILES): CN[C@H]1CN(c2ccc3c(=O)c(C(=O)O)cn(-c4nccs4)c3n2)C[C@@H]1OC [SNS-595, (+)-1,4-dihydro-7-[(3S,4S)-3-methoxy-4-(methylamino)-1-pyrrolidinyl]-4-oxo-1-(2-thiazoyl)-1,8-naphthyridine-3-carboxylic acid]
Consistency of pharmacokinetic properties among patients (patients in the same cohort): remarkably consistent among patients in the same cohort
